Measured values from patent publication US9326513B2, “Fungicidal compositions” (Syngenta Participations AG, priority 2011, dated 2016).

Tests used:
Type in all cases: in vivo
Details in all cases: foliar, compared to untreated control leaf disks, read-out: disease control
[1] = system: Puccinia recondita f. sp. tritici; experiment: Puccinia recondita f. sp. tritici / wheat / leaf disc curative (brown rust)
Method: Puccinia recondita f. sp. tritici/Wheat/Leaf Disc Curative (Brown Rust) Wheat leaf segments cv. Kanzler are placed on agar in multiwell plates (24-well format). The leaf segments are inoculated with a spore suspension of the fungus. Plates were stored in darkness at 19° C. and 75% rh. The formulated test compound diluted in water was applied 1 day after inoculation.

[2] = system: Puccinia recondita f. sp. tritici; experiment: Puccinia recondita f. sp. tritici / wheat / leaf disc preventative (brown rust)
Source text: Puccinia recondita f. sp. tritici/Wheat/Leaf Disc Preventative (Brown Rust) Wheat leaf segments cv. Kanzler were placed on agar in multiwell plates (24-well format) and sprayed with the formulated test compound diluted in water. The leaf disks were inoculated with a spore suspension of the fungus 1 day after application.

[3] = system: Blumeria graminis f. sp. tritici (Erysiphe graminis f. sp. tritici); experiment: Blumeria graminis f. sp. tritici / wheat / leaf disc preventative (powdery mildew on wheat)
Method: Blumeria graminis f. sp. tritici (Erysiphe graminis f. sp. tritici)/Wheat/Leaf Disc Preventative (Powdery Mildew on Wheat)
Wheat leaf segments cv. Kanzler were placed on agar in a multiwell plate (24-well format) and sprayed with the formulated test compound diluted in water. The leaf disks were inoculated by shaking powdery mildew infected plants above the test plates 1 day after application. The inoculated leaf disks were incubated at 20° C. and 60% rh under a light regime of 24 h darkness followed by 12 h light/12 h darkness in a climate chamber and the activity of a compound was assessed as percent disease control compared to untreated when an appropriate level of disease damage appears on untreated check leaf segments (6-8 days after application).
The following compounds gave at 200 ppm give at least 50% disease control in this test when compared to untreated control leaf disks under the same conditions, which show extensive disease development: […]

Measured: pest or weed control at 200 ppm

CCN(C)/C=N/c1cc(Br)c(OCc2ccc(Cl)c(Cl)c2)nc1C [Q.064]
≥ 50%: all assays above

CCOC(=O)COc1nc(C)c(/N=C/N(C)CC)cc1C [Q.065]
≥ 50%: all assays above

CCN(C)/C=N/c1cc(Br)c(O[C@@H]2C[C@@H]3ON=C(C)[C@@H]3C2)nc1C [Q.068]
≥ 50%: all assays above

CCN(C)/C=N/c1cc(Br)c(OC2CCC3(CC2)NC(=O)NC3=O)nc1C (stereo not drawn) [Q.072]
≥ 50%: all assays above

CCN(C)/C=N/c1cc(Br)c(OCc2cc(-c3ccccc3)no2)nc1C [Q.073]
≥ 50%: all assays above

CCN(C)/C=N/c1cc(Br)c(OC(C)(C)c2cc(-c3ccccc3)no2)nc1C [Q.077]
≥ 50%: all assays above

C#CCOc1nc(C)c(/N=C/N(C)CC)cc1Br [Q.078]
≥ 50%: all assays above

C#CC(C)Oc1nc(C)c(/N=C/N(C)CC)cc1Br (stereo not drawn) [Q.080]
≥ 50%: all assays above

CCN(C)/C=N/c1cc(Br)c(OC2CCC(C(C)(C)C)CC2)nc1C (stereo not drawn) [Q.081]
≥ 50%: all assays above

CCN(C)/C=N/c1cc(Br)c(OC2CCCCC2C)nc1C (stereo not drawn) [Q.084]
≥ 50%: all assays above

CCOc1nc(C)c(/N=C/N(C)CC)cc1Br [Q.085]
≥ 50%: all assays above

CCN(C)/C=N/c1cc(Br)c(OC2C(C)CCCC2C)nc1C (stereo not drawn) [Q.094]
≥ 50%: all assays above

CCN(C)/C=N/c1cc(Br)c(OCC2CC=CC2)nc1C [Q.098]
≥ 50%: all assays above

CCN(C)/C=N/c1cc(Br)c(OCc2snc(-c3ccccc3)c2Cl)nc1C [Q.109]
≥ 50%: all assays above

CCN(C)/C=N/c1cc(Br)c(OC(C)c2ccc(C)cc2)nc1C (stereo not drawn) [Q.112]
≥ 50%: all assays above

CCN(C)/C=N/c1cc(Br)c(OCCCC=C(C)C)nc1C [Q.118]
≥ 50%: all assays above

CCN(C)/C=N/c1cc(Br)c(OCc2cc(-c3ccc(F)cc3)ns2)nc1C [Q.123]
≥ 50%: all assays above

CCN(C)/C=N/c1cc(Br)c(OC2CCCc3ccc(Br)cc32)nc1C (stereo not drawn) [Q.126]
≥ 50%: all assays above

CCN(C)/C=N/c1cc(Br)c(OC2CCc3ccc(Br)cc3C2)nc1C (stereo not drawn) [Q.127]
≥ 50%: all assays above

CCN(C)/C=N/c1cc(Br)c(OCc2ccc(C)nc2)nc1C [Q.130]
≥ 50%: all assays above

C/C=C/CCCCOc1nc(C)c(/N=C/N(C)CC)cc1Br [Q.132]
≥ 50%: all assays above

CCN(C)/C=N/c1cc(Br)c(OCC2CC(C)=C(C)C2)nc1C [Q.134]
≥ 50%: all assays above

C=CCC(CC=C)Oc1nc(C)c(/N=C/N(C)CC)cc1Br [Q.140]
≥ 50%: all assays above

C=CCC(C)Oc1nc(C)c(/N=C/N(C)CC)cc1Br (stereo not drawn) [Q.145]
≥ 50%: all assays above

CCN(C)/C=N/c1cc(Br)c(OC(C)CCc2ccccc2)nc1C (stereo not drawn) [Q.147]
≥ 50%: all assays above

CCN(C)/C=N/c1cc(Br)c(OC2CCCC(C)C2)nc1C (stereo not drawn) [Q.149]
≥ 50%: all assays above

CCN(C)/C=N/c1cc(Br)c(OCc2cc(C(F)(F)F)cc(C(F)(F)F)c2)nc1C [Q.152]
≥ 50%: all assays above

CCN(C)/C=N/c1cc(Br)c(OCc2snc(C(C)C)c2C#N)nc1C [Q.156]
≥ 50%: all assays above

C=CCN1CCC(Oc2nc(C)c(/N=C/N(C)CC)cc2Br)CC1 [Q.165]
≥ 50%: all assays above

CCN(C)/C=N/c1cc(Br)c(OC2CCCCCC2)nc1C [Q.171]
≥ 50%: all assays above

CCN(C)/C=N/c1cc(Br)c(OC2C=CCCC2)nc1C (stereo not drawn) [Q.172]
≥ 50%: all assays above

CCN(C)/C=N/c1cc(Br)c(OCc2cccc(N(C)C)c2)nc1C [Q.177]
≥ 50%: all assays above

CCN(C)/C=N/c1cc(I)c(O[C@H]2CC[C@H](C(C)C)CC2)nc1C [Q.179]
≥ 50%: all assays above

CCN(C)/C=N/c1ccc(OC(C)c2cc(F)cc(F)c2)nc1C (stereo not drawn) [Q.181]
≥ 50%: all assays above

CCN(C)/C=N/c1cc(C)c(O[C@H]2CC[C@H](C(C)C)CC2)nc1C [Q.185]
≥ 50%: all assays above

Cc1nc(OC(C)c2cc(F)cc(F)c2)c(Br)cc1/N=C/N(C)C(C)C (stereo not drawn) [Q.188]
≥ 50%: all assays above

C=CCN(C)/C=N/c1cc(Br)c(OC(C)c2cc(F)cc(F)c2)nc1C (stereo not drawn) [Q.192]
≥ 50%: all assays above

CCN(C)/C=N/c1cc(Br)c(OC(C)c2cc(Cl)cc(Cl)c2)nc1C (stereo not drawn) [Q.205]
≥ 50%: all assays above

CCN(C)/C=N/c1cc(Br)c(OC2CCC(O)CC2)nc1C (stereo not drawn) [Q.213]
≥ 50%: all assays above

CC#Cc1cc(/N=C/N(C)CC)c(C)nc1OC(C)c1cc(F)cc(F)c1 (stereo not drawn) [Q.230]
≥ 50%: all assays above

CCN(C)/C=N/c1cc(Br)c(OC(C)c2ccc3c(c2)CCC3)nc1C (stereo not drawn) [Q.239]
≥ 50%: all assays above
